Assays:
[1] = tested on: LM2 and MDA-MB-231 breast cancer cell lines; experiment: PAICS 2D cell proliferation assay (CellTiter-Glo viability, 72 h); format: cell-based; conditions: Homo sapiens; 72 h incubation; cell line not given
Procedure: PAICS 2D Cell Proliferation Assay
Frozen cryovial stocks of LM2 and MDA-MB-231 breast cancer cell lines were thawed and cultured in 4.5 g/L glucose DMEM (31966-047, Invitrogen) supplemented with 10% Fetal Bovine Serum (10500-064, Invitrogen) until confluent in a T175 flask. Cells were incubated at 37° C. with 5% CO2 in a humidified incubator.
Cells were collected from T175 flasks by washing with PBS (10010-056, Invitrogen) and dissociated using Accutase (A6964, Sigma Aldrich). This was followed by centrifuging (1200 rpm, 5 min) and resuspending the cells in 10 ml of media containing 1% penicillin/streptomycin (15140-122, Invitrogen). Cells were counted by trypan blue exclusion method using an automated cell counter (Cellometer) and diluted to a concentration of 40,000/ml. 1000 cells were then seeded into 384-well white-walled plates (Corning, 3707) in a volume of 25 μl. Plates were Incubated overnight at 37° C. with 5% CO2.
After 24 hours, PAICS compounds were added onto the assay plates using an HP D300 Digital Dispenser (Hewlett Packard). 10 mM stocks were used and dispensed as a 10 point concentration response curve (CRC) ½ log dilution series with a final top concentration of 100 μM. Controls were added onto each plate: positive controls included Staurosporine CRC (100 μM stock dispensed as a 10 point CRC ½ log dilution series with a final top concentration of 1 μM) and PAICS compound MRT00211919 (10 mM stock dispensed as a 10 point CRC ½ log dilution series with a final top concentration of 100 μM); a high control of Staurosporine (0.1 μM (LM2), 0.316 μM (MDA-MB-231) FAC) and a low control of media containing 1% DMSO. A final concentration of 1% DMSO was then added across the plates for normalisation. Following compound addition, assay plates were incubated for 72 hours at 37° C. with 5% CO2.
Day 5—Cytotoxicity and Cell Viability Assays
After 72 h incubation, dead and viable cells were measured in each assay plate. Cytotoxicity was assessed through fluorescent DNA staining using the CellTox™ Green Cytotoxicity Assay kit (G8743, Promega) following the manufacturer's multiplexing protocol. Impaired cell membrane integrity results in the access of dye to stain DNA allowing quantification of dead cells. Cell viability was determined following ATP quantification using the CellTiter-Glo® Luminescent Cell Viability Assay kit (G7572, Promega) following the manufacturer's protocol. ATP released from lysed cells allowed for the generation of a signal proportional to the number of cells present in the well. All endpoint reads were performed using the PheraSTAR Plus (BMG Labtech). Data is expressed as % viable cells and % dead cells against controls (mean±SEM of duplicate curves).

WT full length PAICS = WT full length PAICS (Homo sapiens (Human), UniProt P22234); experiment: Biochemical assay to measure PAICS activity (Transcreener ADP2 FI); conditions: SAICAR synthetase reaction, ADP detection, 30 min pre-incubation
WT full length PAICS, sequence (P22234 whole entry): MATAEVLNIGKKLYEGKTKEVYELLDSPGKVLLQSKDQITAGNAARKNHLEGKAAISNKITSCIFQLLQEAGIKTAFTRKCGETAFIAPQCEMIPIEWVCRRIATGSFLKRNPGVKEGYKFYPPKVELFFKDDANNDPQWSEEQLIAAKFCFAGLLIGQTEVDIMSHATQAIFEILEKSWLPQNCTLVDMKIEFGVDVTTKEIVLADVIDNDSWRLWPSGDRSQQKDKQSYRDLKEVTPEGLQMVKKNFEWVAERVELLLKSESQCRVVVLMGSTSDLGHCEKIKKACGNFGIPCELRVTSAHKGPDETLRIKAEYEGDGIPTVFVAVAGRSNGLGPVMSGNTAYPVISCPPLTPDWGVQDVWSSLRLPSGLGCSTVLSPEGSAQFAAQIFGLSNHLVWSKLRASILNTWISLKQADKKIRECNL
Excerpt: Biochemical Assay to Measure PAICS Activity
The biochemical assay was used to measure PAICS SAICAR synthetase-mediated conversion of CAIR, aspartic acid and ATP to SAICAR, ADP and inorganic phosphate (Pi), post-AIR/CAIR equilibration (see FIG. 3). This was achieved by detecting the ADP generated during the reaction, using Bellbrook Lab's Transcreener ADP^2 FI assay. An increase in the fluorescence intensity is directly proportional to the amount of PAICS activity.
The Transcreener ADP^2 FI assay is a homogeneous competitive displacement fluorescence intensity assay which uses direct immunodetection of ADP. Displacement of the tracer by ADP causes an increase in the fluorescence at excitation 590 nm and emission 617 nm (FIG. 3).
5 μl WT full length PAICS (final assay concentration, fac, 2.5 nM) in basic buffer, added to black, non-binding, 384-well plates (Corning #3575), columns 1 to 22. 5 μl basic buffer was added to columns 23+24 (negative control). PAICS stock at 31.9 μM from the PI's lab (Steve Firestine). Basic buffer contained 50 mM Tris-HCl pH8 and 0.5 mM EDTA, fac.
1 μl compound in 100% DMSO added per well, or 1 μl 100% DMSO to positive controls (columns 1+2) and negative controls (columns 23+24). Final assay top concentration of compound either 1 mM or 30-μM, serially diluted with half-log dilutions across the plate in duplicate (one 10-point concentration response curve across wells 3 to 12, another across 13 to 22). Compounds pre-incubated with PAICS enzyme for 30 mins at RT. 2 μl CAIR added (fac 10 μM) in basic buffer plus 25 mM MgCl2 and 50 mM KHCO3 fac to all wells. CAIR stock 50 mM from Steve Firestine's lab. 1 hr RT incubation for AIR-CAIR equilibration. NB: ˜50% CAIR is decarboxylated during equilibration therefore 5 μM remains for the synthetase reaction.
2 μl ATP/aspartic acid added (fac 30 μM/180 μM) in reaction buffer to all wells. 30 mins RT incubation for appropriate level of ATP turnover. Reaction buffer contained basic buffer plus 10 mM DTT, 0.01% BSA and 0.01% Brij 35, fac.
10 μl ADP detection reagent added to all wells (as per instructions, Transcreener ADP^2 FI kit, BellBrook Labs #3013-10K). Incubation for 1 h at RT to allow antibody equilibration. Fluorescence intensity determined using a Tecan Safire2 (excitation at 590 nm, emission at 617 nm).

SMILES | EC50 [1] [nM] | IC50 (WT full length PAICS) [nM]
Nc1nc(C(=O)Nc2cc(N3CCN(C(=O)OCC4CNC4)CC3)ccc2Cl)co1 [Example 19, Azetidin-3-ylmethyl 4-(3-(2-aminooxazole-4-carboxamido)-4-chlorophenyl) piperazine-1-carboxylate] | 500 to 1000 | > 100
CN1CC(COC(=O)N2CCN(c3ccc(Cl)c(NC(=O)c4coc(N)n4)c3)CC2)C1 [Example 20, (1-Methylazetidin-3-yl) methyl 4-(3-(2-aminooxazole-4-carboxamido)-4-chlorophenyl) piperazine-1-carboxylate] | 500 to 1000 | 10 to 25
Nc1nc(C(=O)Nc2cc(N3CCN(C(=O)OCCNC4CC4)CC3)ccc2Br)co1 [Example 21, 2-(Cyclopropylamino)ethyl 4-(3-{[(2-amino-1,3-oxazol-4-yl)carbonyl]amino}-4-bromophenyl)piperazine-1-carboxylate] | 100 to 250 | 10 to 25
Nc1nc(C(=O)Nc2cc(N3CCN(C(=O)OC4CNC4)CC3)ccc2Cl)co1 [Example 22, Azetidin-3-yl 4-(3-{[(2-amino-1,3-oxazol-4-yl)carbonyl]amino}-4-chlorophenyl)piperazine-1-carboxylate] | 100 to 250 | > 100
CNCCOC(=O)N1CCN(c2ccc(Br)c(NC(=O)c3coc(N)n3)c2)CC1 [Example 25, 2-(Methylamino)ethyl 4-(3-(2-aminooxazole-4-carboxamido)-4-bromophenyl)piperazine-1-carboxylate] | 100 to 250 | 10 to 25
CSc1ccc(N2CCN(C(=O)OCCCN(C)C)CC2)cc1NC(=O)c1coc(N)n1 [Example 26, 3-(Dimethylamino)propyl-4-[3-{[(2-amino-1,3-oxazol-4-yl)carbonyl]amino}-4-(methylsulfanyl)phenyl]piperazine-1-carboxylate] | 500 to 1000 | 
CSc1ccc(N2CCN(C(=O)OCCN(C)C)CC2)cc1NC(=O)c1coc(N)n1 [Example 27, 2-(Dimethylamino)ethyl 4-[3-{[(2-amino-1,3-oxazol-4-yl)carbonyl]amino}-4-(methylsulfanyl)phenyl]piperazine-1-carboxylate] | 500 to 1000 | 
CN1CC(OC(=O)N2CCN(c3ccc(Br)c(NC(=O)c4coc(N)n4)c3)CC2)C1 [Example 28, 1-Methylazetidin-3-yl 4-(3-{[(2-amino-1,3-oxazol-4-yl)carbonyl]amino}-4-bromophenyl)piperazine-1-carboxylate] | 250 to 500 | 10 to 25
CN(C)CCCOC(=O)N1CCN(c2ccc(Cl)c(NC(=O)c3coc(N)n3)c2)CC1 [Example 29, 3-(Dimethylamino)propyl 4-(3-{[(2-amino-1,3-oxazol-4-yl)carbonyl]amino}-4-chlorophenyl)piperazine-1-carboxylate] | 500 to 1000 | 25 to 100
CN1CCC(OC(=O)N2CCN(c3ccc(Cl)c(NC(=O)c4coc(N)n4)c3)CC2)C1 (centres unmarked) [Example 30, 1-Methylpyrrolidin-3-yl 4-(3-{[(2-amino-1,3-oxazol-4-yl)carbonyl]amino}-4-chlorophenyl)piperazine-1-carboxylate] | 500 to 1000 | > 100
CNCCOC(=O)N1CCN(c2ccc(Cl)c(NC(=O)c3coc(N)n3)c2)CC1 [Example 31, 2-(Methylamino)ethyl 4-(3-{[(2-amino-1,3-oxazol-4-yl)carbonyl]amino}4-chlorophenyl)piperazine-1-carboxylate] | 500 to 1000 | 25 to 100
Nc1nc(C(=O)Nc2cc(N3CCN(C(=O)OC4CCNC4)CC3)ccc2Cl)co1 (centres unmarked) [Example 32, Pyrrolidin-3-yl 4-(3-{[(2-amino-1,3-oxazol-4-yl)carbonyl]amino}-4-chlorophenyl)piperazine-1-carboxylate] | 500 to 1000 | 25 to 100
CN(C)CCOC(=O)N1CCN(c2ccc(Cl)c(NC(=O)c3coc(N)n3)c2)CC1 [Example 33, 2-(Dimethylamino)ethyl 4-(3-{[(2-amino-1,3-oxazol-4-yl)carbonyl]amino}-4-chlorophenyl)piperazine-1-carboxylate] | 500 to 1000 | 25 to 100
CC(CN1CCCC1)CS(=O)(=O)N1CCN(c2ccc(Br)c(NC(=O)c3coc(N)n3)c2)CC1 (centres unmarked) [Example 71, 2-Amino-N-[2-bromo-5-(4-{[2-methyl-3-(pyrrolidin-1-yl)propyl]sulfonyl}piperazin-1-yl)phenyl]-1,3-oxazole-4-carboxamide] | < 100 | 
CNCC(C)CS(=O)(=O)N1CCN(c2ccc(Br)c(NC(=O)c3coc(N)n3)c2)CC1 (centres unmarked) [Example 78, 2-Amino-N-[2-bromo-5-(4-{[2-methyl-3-(methylamino)propyl]sulfonyl}piperazin-1-yl)phenyl]-1,3-oxazole-4-carboxamide] | < 100 | 
CCNCC(C)CS(=O)(=O)N1CCN(c2ccc(Br)c(NC(=O)c3coc(N)n3)c2)CC1 (centres unmarked) [Example 79, 2-Amino-N-[2-bromo-5-(4-{[3-(ethylamino)-2-methylpropyl]sulfonyl}piperazin-1-yl)phenyl]-1,3-oxazole-4-carboxamide] | < 100 | 
CC(CNC(C)C)CS(=O)(=O)N1CCN(c2ccc(Br)c(NC(=O)c3coc(N)n3)c2)CC1 (centres unmarked) [Example 80, 2-Amino-N-[2-bromo-5-(4-{[2-methyl-3-(propan-2-ylamino)propyl]sulfonyl}piperazin-1-yl)phenyl]-1,3-oxazole-4-carboxamide] | < 100 | 
CCN(CC)CC(C)CS(=O)(=O)N1CCN(c2ccc(Br)c(NC(=O)c3coc(N)n3)c2)CC1 (centres unmarked) [Example 81, 2-Amino-N-[2-bromo-5-(4-{[3-(diethylamino)-2-methylpropyl]sulfonyl}piperazin-1-yl)phenyl]-1,3-oxazole-4-carboxamide] | 100 to 250 | 
CC(CN(C)C)CS(=O)(=O)N1CCN(c2ccc(Br)c(NC(=O)c3coc(N)n3)c2)CC1 (centres unmarked) [Example 82, 2-Amino-N-[2-bromo-5-(4-{[3-(dimethylamino)-2-methylpropyl]sulfonyl}piperazin-1-yl)phenyl]-1,3-oxazole-4-carboxamide] | 100 to 250 | 
Nc1nc(C(=O)Nc2cc(N3CCN(S(=O)(=O)C4CCNC4)CC3)ccc2Br)co1 (centres unmarked) [Example 88, 2-Amino-N-{2-bromo-5-[4-(pyrrolidin-3-ylsulfonyl)piperazin-1-yl]phenyl}-1,3-oxazole-4-carboxamide] | 100 to 250 | 
CN1CCC(S(=O)(=O)N2CCN(c3ccc(Br)c(NC(=O)c4coc(N)n4)c3)CC2)C1 (centres unmarked) [Example 89, 2-Amino-N-(2-bromo-5-{4-[(1-methylpyrrolidin-3-yl)sulfonyl]piperazin-1 yl}phenyl)-1,3-oxazole-4-carboxamide] | 100 to 250 | 

From patent US10961233B2 (LIFEARC, priority 2016, dated 2021)
